Measured values from patent US10654837B2, “Sulphamoylaryl derivatives and use thereof as medicaments for the treatment of liver fibrosis” (Janssen Pharmaceutica NV, priority 2017, dated 2020).

Target: T1, 5HTR2B (Homo sapiens, UniProt P41595)
T1 construct: host or cells: human Maverick/293 cells
Test: 5HTR2B antagonist activity, calcium mobilization assay in human Maverick/293 cells (serotonin as agonist)
Format: cell-based
Settings: intracellular calcium, emission 525 nm, read-out: Ca assay IC50
How it was run: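 Serum-starved (2 h) human Maverick/293 cells loaded with calcium dye for 50 min at 37 °C, then antagonist preincubated 15-30 min before serotonin challenge. Calcium fluorescence (ex 485/em 525 nm) recorded for 80 s; peak-based % inhibition fitted sigmoidally for IC50.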

T1 sequence (P41595 whole entry): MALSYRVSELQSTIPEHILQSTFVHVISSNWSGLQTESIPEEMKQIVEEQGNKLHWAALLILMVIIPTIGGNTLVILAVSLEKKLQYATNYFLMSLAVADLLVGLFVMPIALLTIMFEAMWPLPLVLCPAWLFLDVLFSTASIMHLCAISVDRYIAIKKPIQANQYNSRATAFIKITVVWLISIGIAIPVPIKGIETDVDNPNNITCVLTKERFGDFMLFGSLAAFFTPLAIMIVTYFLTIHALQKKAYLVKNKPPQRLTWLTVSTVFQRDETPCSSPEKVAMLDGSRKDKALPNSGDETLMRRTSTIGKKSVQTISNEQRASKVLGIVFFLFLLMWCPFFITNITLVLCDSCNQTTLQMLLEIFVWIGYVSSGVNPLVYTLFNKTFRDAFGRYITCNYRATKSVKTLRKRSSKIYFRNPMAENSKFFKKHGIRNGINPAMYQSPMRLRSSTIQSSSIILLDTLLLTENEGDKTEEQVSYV

Compound | IC50 [nM]
COc1ccc(S(=O)(=O)N[C@H]2CC[C@H](O)CC2)cc1C(=O)Nc1ccc(F)c(C)n1 [Compound 18, (trans)-N-(5-Fluoro-6-methylpyridin-2-yl)-5-(N-(−4-hydroxycyclohexyl)sulfamoyl)-2-methoxybenzamid] | 222
COc1ccc(S(N)(=O)=O)cc1C(=O)Nc1ccc(F)c(C)n1 [Compound 22] | 610
COc1ccc(S(=O)(=O)NC2CC[C@H](O)C2)cc1C(=O)Nc1ccc(F)c(C(F)F)c1 (stereo in doubt) [Compound 33b, N-(3-(Difluoromethyl)-4-fluorophenyl)-5-(N-((cis)-3-hydroxycyclopentyl)sulfamoyl)-2-methoxybenzamide] | 0.4
COc1ccc(S(=O)(=O)NC2CCCOC2)cc1C(=O)Nc1ccc(F)c(C)n1 (single isomer, unassigned) [Compound 16b, (R*)—N-(5-Fluoro-6-methylpyridin-2-yl)-2-methoxy-5-(N-(tetrahydro-2H-pyran-3-yl)sulfamoyl)benzamide] | 9.1
COc1ccc(S(=O)(=O)N[C@H]2C[C@@](C)(O)C2)cc1C(=O)Nc1ccc(F)c(C)n1 [Compound 31, N-(5-fluoro-6-methylpyridin-2-yl)-5-(N-((cis)-3-hydroxy-3-methylcyclobutyl)sulfamoyl)-2-methoxybenzamide] | 55
COc1ccc(S(=O)(=O)NC2COC2)cc1C(=O)Nc1ccccc1Cl [Compound 62, N-(2-Chlorophenyl)-2-methoxy-5-(N-(oxetan-3-yl)sulfamoyl)benzamide] | 0.1
COc1ccc(S(=O)(=O)N[C@@H](C)CC#N)cc1C(=O)Nc1ccccc1Cl (single isomer, unassigned) [Compound 60a, (S*)—N-(2-Chlorophenyl)-5-(N-(1-cyanopropan-2-yl)sulfamoyl)-2-methoxy benzamide] | 0.4
COc1ccc(S(=O)(=O)N[C@H]2CCOC2)cc1C(=O)Nc1ccc(F)cc1F [Compound 65, (S)—N-(2,4-Difluorophenyl)-2-methoxy-5-(N-(tetrahydrofuran-3-yl)sulfamoyl) benzamide] | 0.34
COc1ccc(S(=O)(=O)N[C@H]2CCOC2)cc1C(=O)Nc1cc(Cl)ccc1Cl [Compound 71, (S)—N-(2,5-Dichlorophenyl)-2-methoxy-5-(N-(tetrahydrofuran-3-yl)sulfamoyl)benzamide] | 1.6
CCNS(=O)(=O)c1ccc(OC)c(C(=O)Nc2ccc(F)c(C)n2)c1 [Compound 26, 5-(N-Ethylsulfamoyl)-N-(5-fluoro-6-methylpyridin-2-yl)-2-methoxybenzamide] | 1.3
COc1ccc(S(=O)(=O)N[C@@H](C)CO)cc1C(=O)Nc1ccc(F)cc1 [Compound 52a, (S)—N-(4-fluorophenyl)-5-(N-(1-hydroxypropan-2-yl)sulfamoyl)-2-methoxybenzamide] | 50
COc1ccc(S(=O)(=O)N[C@@H](C)CO)cc1C(=O)Nc1ccccc1Cl [Compound 55a, (S)—N-(2-Chlorophenyl)-5-(N-(1-hydroxypropan-2-yl)sulfamoyl)-2-methoxy benzamide] | 0.3
COc1ccc(S(=O)(=O)NC2CCCOC2)cc1C(=O)Nc1ccc(F)c(C)n1 (single isomer, unassigned) [Compound 16a, (S*)—N-(5-Fluoro-6-methylpyridin-2-yl)-2-methoxy-5-(N-(tetrahydro-2H-pyran-3-yl)sulfamoyl)benzamide] | 1.1
COc1ccc(S(=O)(=O)N[C@H](C)CO)cc1C(=O)Nc1ccccc1Cl [Compound 55b, (R)—N-(2-Chlorophenyl)-5-(N-(1-hydroxypropan-2-yl)sulfamoyl)-2-methoxy benzamide] | 0.1
COc1ccc(S(=O)(=O)N[C@H]2CC[C@@H](O)CC2)cc1C(=O)Nc1ccc(F)cc1 [Compound 53, N-(4-Fluorophenyl)-5-(N-((cis)-4-hydroxycyclohexyl)sulfamoyl)-2-methoxybenzamide] | 0.3
COc1ccc(S(=O)(=O)NC2CC2)cc1C(=O)Nc1ccc(F)c(C)n1 [Compound 21, 5-(N-Cyclopropylsulfamoyl)-N-(5-fluoro-6-methylpyridin-2-yl)-2-methoxy benzamide] | 1.6

Further lines, results first:

IC50 [nM] | Compound
0.17 | COc1ccc(S(=O)(=O)N[C@H]2CCOC2)cc1C(=O)Nc1ccc(F)cc1 [Compound 158, (S)—N-(4-Fluorophenyl)-2-methoxy-5-(N-(tetrahydrofuran-3-yl)sulfamoyl) benzamide]
596 | COc1ccc(S(=O)(=O)N[C@H]2CCOC2)cc1C(=O)Nc1ccc(OC(F)F)cc1 [Compound 106, (S)—N-(4-(Difluoromethoxy)phenyl)-2-methoxy-5-(N-(tetrahydrofuran-3-yl)sulfamoyl)benzamide]
0.4 | [2H]C([2H])([2H])Oc1ccc(S(=O)(=O)N[C@H]2CCOC2)cc1C(=O)Nc1ccc(F)c(C(F)F)c1 [Compound 192, (S)—N-(3-(Difluoromethyl)-4-fluorophenyl)-2-(methoxy-d3)-5-(N-(tetrahydrofuran-3-yl)sulfamoyl)benzamide]
2.4 | COc1ccc(S(=O)(=O)N[C@H]2CCOC2)cc1C(=O)Nc1c(F)cc(F)cc1Cl [Compound 78, (S)—N-(2-Chloro-4,6-difluorophenyl)-2-methoxy-5-(N-(tetrahydrofuran-3-yl)sulfamoyl)benzamide]
4.2 | COc1ccc(S(=O)(=O)N[C@@H]2CCNC2)cc1C(=O)Nc1ccc(F)c(C)n1 [Compound 177, (R)—N-(5-Fluoro-6-methylpyridin-2-yl)-2-methoxy-5-(N-(pyrrolidin-3-yl)sulfamoyl)benzamide]
0.3 | COc1ccccc1NC(=O)c1cc(S(=O)(=O)N[C@H]2CCNC2)ccc1OC [Compound 184, (S)-2-methoxy-N-(2-methoxyphenyl)-5-(N-(pyrrolidin-3-yl)sulfamoyl) benzamide]
0.4 | COc1ccc(S(=O)(=O)N[C@H]2CCOC2)cc1C(=O)Nc1ccc(Cl)cc1F [Compound 114, (S)—N-(4-Chloro-2-fluorophenyl)-2-methoxy-5-(N-(tetrahydrofuran-3-yl)sulfamoyl)benzamide]
163 | COc1ccc(S(=O)(=O)N[C@H]2CCOC2)cc1C(=O)Nc1ncc(F)cc1C [Compound 132, (S)—N-(5-fluoro-3-methylpyridin-2-yl)-2-methoxy-5-(N-(tetrahydrofuran-3-yl)sulfamoyl)benzamide]
1 | COc1ccc(S(=O)(=O)N[C@H]2C[C@@H](O)C2)cc1C(=O)Nc1cc(F)ccc1Cl [Compound 146b, N-(2-chloro-5-fluorophenyl)-5-(N-((cis)-3-hydroxycyclobutyl)sulfamoyl)-2-methoxybenzamide]
9.9 | COc1ccc(S(=O)(=O)N[C@H]2CCOC2)cc1C(=O)Nc1ccccc1OC(F)(F)F [Compound 150, (S)-2-Methoxy-5-(N-(tetrahydrofuran-3-yl)sulfamoyl)-N-(2-(trifluoromethoxy)phenyl)benzamide]
0.6 | COc1ccc(S(=O)(=O)N[C@H]2C[C@H](O)C2)cc1C(=O)Nc1ccccc1Cl [Compound 154]
0.32 | COc1ccc(S(=O)(=O)N[C@H]2CCOC2)cc1C(=O)Nc1ccc(F)c(C(F)F)c1 [Compound 167, (S)—N-(3-(Difluoromethyl)-4-fluorophenyl)-2-methoxy-5-(N-(tetrahydrofuran-3-yl)sulfamoyl)benzamide]
12 | COc1ccc(S(=O)(=O)N[C@H]2CCOC2)cc1C(=O)Nc1cccc(Cl)c1 [Compound 126, (S)—N-(3-Chlorophenyl)-2-methoxy-5-(N-(tetrahydrofuran-3-yl)sulfamoyl) benzamide]
231 | COc1ccc(S(=O)(=O)N[C@H]2CCOC2)cc1C(=O)Nc1cccc(C(F)(F)F)c1 [Compound 109, (S)-2-Methoxy-5-(N-(tetrahydrofuran-3-yl)sulfamoyl)-N-(3-(trifluoromethyl)phenyl)benzamide]
0.16 | COc1ccccc1NC(=O)c1cc(S(=O)(=O)N[C@H]2CCOC2)ccc1OC [Compound 166, (S)-2-Methoxy-N-(2-methoxyphenyl)-5-(N-(tetrahydrofuran-3-yl)sulfamoyl) benzamide]
161 | COc1ccc(S(N)(=O)=O)cc1C(=O)Nc1ccc(F)cc1F [Compound 148, N-(2,4-Difluorophenyl)-2-methoxy-5-sulfamoylbenzamide]
19 | [2H]C([2H])([2H])Oc1ccc(S(=O)(=O)N[C@H]2CCOC2)cc1C(=O)Nc1ncc(F)cc1F [Compound 196, (S)—N-(3,5-difluoropyridin-2-yl)-2-(methoxy-d3)-5-(N-(tetrahydrofuran-3-yl)sulfamoyl)benzamide]
1.1 | [2H]C([2H])([2H])Oc1ccc(S(=O)(=O)N[C@H]2CCOC2)cc1C(=O)Nc1ccc(F)c(C)c1 [Compound 191, (S)—N-(4-fluoro-3-methylphenyl)-2-(methoxy-d3)-5-(N-(tetrahydrofuran-3-yl)sulfamoyl)benzamide]
0.9 | COc1ccc(S(=O)(=O)N[C@H]2C[C@@H](O)C2)cc1C(=O)Nc1cccc(C)c1Cl [Compound 140b, N-(2-Chloro-3-methylphenyl)-5-(N-((cis)-3-hydroxycyclobutyl)sulfamoyl)-2-methoxybenzamide]
17 | COc1ccc(S(=O)(=O)N[C@H]2CCOC2)cc1C(=O)Nc1cccc(F)c1F [Compound 113, (S)—N-(2,3-Difluorophenyl)-2-methoxy-5-(N-(tetrahydrofuran-3-yl)sulfamoyl) benzamide]
0.3 | COc1ccc(S(=O)(=O)N[C@H]2C[C@@H](O)C2)cc1C(=O)Nc1ccc(F)cc1Cl [Compound 144b, N-(2-chloro-4-fluorophenyl)-5-(N-((cis)-3-hydroxycyclobutyl)sulfamoyl)-2-methoxybenzamide]
39 | COc1ccc(S(=O)(=O)N[C@H]2C[C@@H](O)C2)cc1C(=O)Nc1cc(C)ccc1Cl [Compound 137b, N-(2-Chloro-5-methylphenyl)-5-(N-((cis)-3-hydroxycyclobutyl)sulfamoyl)-2-methoxybenzamide]
